From US20240246981A1, “[…] DERIVATIVES AS INHIBITORS OF […]-PEPTIDE CYCLOTRANSFERASE AND […]-PEPTIDE CYCLOTRANSFERASE LIKE PROTEIN” (Boehringer Ingelheim International GmbH, priority 2022, published 2024)
pIC50: −log10 of the molar value. Like-named read-outs stand apart in the source and are kept apart here.

Experiments:
QPCTL = QPCTL (Homo sapiens (Human), UniProt Q9NXS2); test: Assay A: biochemical QPCTL activity assay (MALDI-TOF MS); details: compounds of the invention, Table 2; read-out: Inhibition of QPCTL: IC50
QPCTL, sequence (Q9NXS2 whole entry): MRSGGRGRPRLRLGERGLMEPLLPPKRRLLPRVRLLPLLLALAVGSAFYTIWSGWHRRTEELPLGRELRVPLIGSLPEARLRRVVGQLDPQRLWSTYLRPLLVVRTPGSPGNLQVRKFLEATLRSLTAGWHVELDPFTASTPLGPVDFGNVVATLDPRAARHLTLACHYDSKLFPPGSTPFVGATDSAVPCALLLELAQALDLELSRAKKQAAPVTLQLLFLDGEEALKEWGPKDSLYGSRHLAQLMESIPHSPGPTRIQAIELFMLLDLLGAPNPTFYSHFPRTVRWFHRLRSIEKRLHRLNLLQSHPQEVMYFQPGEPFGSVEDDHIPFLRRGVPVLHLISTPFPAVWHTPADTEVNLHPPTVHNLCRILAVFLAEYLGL
Description: (§1) QPCT or QPCTL dependent conversion of N-terminal glutamine to pyroglutamate of CD47 was monitored via MALDI-TOF MS. Test compounds were dissolved in 100% DMSO and serially diluted into clear 1,536-well microtiter plates. Enzymatic reactions were set up in assay buffer containing 20 mM Tris pH 7.5, 0.1 mM TCEP, 0.01% BSA, and 0.001% Tween20. […] The plates were incubated for 10 min in a humidified incubator at 24° C. Subsequently, 2.5 μL of CD47 peptide substrate surrogate (^19[…]^33) was added to each well (final concentration: 10 μM for QPCTL/20 μM for QPCT). The plates were mixed for 30 sec at 1,000 rpm and subsequently incubated for 40 min in a humidified incubator at 24° C. […] The plates were sealed with an adhesive foil, mixed for 30 s at 1,000 rpm and stored at room temperature until preparation of the MALDI target plates. […] QPCT or QPCTL activity was monitored by calculating the ratio between product and internal standard signals followed by normalization to high (100% activity) and low (0% activity) controls. Determination of compound potencies was obtained by fitting the dose-response data to a four-parameter logistical equation.

QPCT = QPCT (Homo sapiens (Human), UniProt Q16769); test: Assay A: biochemical QPCT activity assay (MALDI-TOF MS); details: compounds of the invention, Table 2; read-out: Inhibition of QPCT: IC50
QPCT, sequence (Q16769 29-361): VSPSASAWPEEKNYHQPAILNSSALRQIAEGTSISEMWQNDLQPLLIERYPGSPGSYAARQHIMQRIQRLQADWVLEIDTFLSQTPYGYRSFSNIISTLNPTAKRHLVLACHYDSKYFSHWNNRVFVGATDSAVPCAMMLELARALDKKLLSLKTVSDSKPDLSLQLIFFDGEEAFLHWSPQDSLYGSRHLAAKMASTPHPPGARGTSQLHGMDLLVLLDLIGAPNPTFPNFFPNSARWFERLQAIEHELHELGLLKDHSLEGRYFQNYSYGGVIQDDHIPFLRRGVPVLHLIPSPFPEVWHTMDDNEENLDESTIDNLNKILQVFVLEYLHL
Description: as §1

[1] = test system: SIRPα signalling induced by Raji cells; test: Assay B: SIRPα signalling assay using Raji cells; type: cell-based, human
Description: Bioassay reagent 1 of the PathHunter Bioassay detection kit (DiscoverX 93-0001) was added to each well of the plate using a multichannel pipette followed by a 15 min incubation at room temperature. Afterwards bioassay reagent 2 was added followed by 60 min incubation at room temperature (incubation in the dark).
(§2) The analysis of the data was performed using the luminescence signal generated by beta-galactosidase in the PathHunter reporter cell line. The luminescence measurement was done using a Pherastar Multi-Mode Reader.

[2] = test system: SIRPα signalling induced by A549 cells; test: Assay B: SIRPα signalling assay using A549 cells; type: cell-based, human
Description: Two cell types are independently used: the Raji cell line (lymphoblastlike human cell line derived from B lymphocytes from a Burkitt's lymphoma patient in 1963) and A549 cells (adenocarcinomic human alveolar basal epithelial cells).
Test compounds were dissolved in 100% DMSO and serially diluted into a white 384-well microtiter cell culture plate (PerkinElmer #60076780 in case of Raji assay; PDL-coated plates Greiner #781945 in case of A549 assay). 5000 Raji cells (ATCC #CC86) or 5000 A549 cells (ATCC #CCL-185) in Assay Complete Cell Plating reagent 30 (DiscoverX 93-0563R30B) were added per well. The assay plate was incubated for 48 h at 37° C., 95% humidity and 5% CO2. 15000 reporter cells (Jurkat PathHunter SIRPα V1, DiscoverX #93-1135C19) were added to each well, and the plate was incubated for 5 h at 37° C., 95% humidity and 5% CO2. Bioassay reagent 1 of the PathHunter Bioassay detection kit (DiscoverX 93-0001) was added to each well of the plate using a multichannel pipette followed by a 15 min incubation at room temperature. Afterwards bioassay reagent 2 was added followed by 60 min incubation at room temperature (incubation in the dark).
as §2, with “Reader. Dose-response curves & IC50 data were calculated with 4-parameter sigmoidal dose response formula.” for “Reader.”

Caco-2 cells = test: Assay C: permeability in CACO-2 cells; type: in vitro ADME; details: for Permeability A-B: Caco-2, apical to basolateral
Description: (§3) Compounds are dissolved in appropriate solvent (like DMSO, 1-20 mM stock solutions). […] The transport solution (TL) is applied to the apical or basolateral donor side for measuring A-B or B-A permeability (3 filter replicates), respectively. Samples are collected at the start and end of experiment from the donor and at various time intervals for up to 2 hours also from the receiver side for concentration measurement by HPLC-MS/MS or scintillation counting. Sampled receiver volumes are replaced with fresh receiver solution.

[3] = Assay C: permeability in CACO-2 cells; type: in vitro ADME; details: human, pH 7.2, compounds of the invention, Table 7; for Papp A→B: Caco-2, apical to basolateral; for efflux ratio: Caco-2
Description: as §3

[4] = Homo sapiens, compounds of the invention, Table 4, read-out: Inhibition of SIRα signalling induced by Raji cells: IC50
[5] = Homo sapiens, compounds of the invention, Table 4, read-out: Inhibition of SIRα signalling induced by A549 cells: IC50

pIC50 (QPCTL)	pIC50 (QPCT)	pIC50 ([1]; compounds of the invention, Table 4, read-out: Inhibition of SIRα signalling induced by Raji cells: IC50)	pIC50 ([2]; compounds of the invention, Table 4, read-out: Inhibition of SIRα signalling induced by A549 cells: IC50)	Permeability A-B (Caco-2 cells; compounds of the invention, Table 7)	efflux ratio (Caco-2 cells; Caco-2, compounds of the invention, Table 7)	pIC50 ([1]; prior art compounds, Table 5, read-out: Inhibition of SIRPα signalling induced by Raji cells: IC50)	pIC50 ([2]; prior art compounds, Table 5, read-out: Inhibition of SIRPα signalling induced by A549 cells: IC50)	Permeability A-B (Caco-2 cells; prior art compounds, Table 8)	pIC50 [1, 4]	pIC50 [2, 5]	Papp A→B [3] [×10⁻⁶ cm/s]	efflux ratio [3]	SMILES
8.70	7.96	6.47	6.75	0.2 10^−6 cm/s	37.8	–	–	–	–	–	–	–	CNC(=O)c1cncc(-c2cccc(C#N)c2N2CCC(c3nncn3C)CC2)c1 [Example 80]
–	–	–	–	–	–	5.86	6.67	11.0 10^−6 cm/s	–	–	–	–	Cn1cnnc1C1CCN(c2ncccc2-c2ccc(F)nc2)CC1 [SEN177, reference compound]
8.70	7.92	–	–	–	–	–	–	–	7.29	7.74	24	2.4	Cn1cnnc1C1CCN(c2c(C#N)cccc2-c2cnc(F)c(OCc3ccccc3)c2)CC1 [compound 35]
8.70	8.10	–	–	–	–	–	–	–	6.83	7.28	3.4	12.9	Cc1cc(C)n(-c2cncc(-c3cccc(C#N)c3N3CCC(c4nncn4C)CC3)c2)n1 [compound 51]
7.82	7.28	–	–	–	–	–	–	–	6.11	6.78	1.6	11.9	Cn1cnnc1C1CCN(c2c(C#N)cccc2-c2cncnc2)CC1 [compound 13]
9.00	8.52	–	–	–	–	–	–	–	7.54	8.15	50	0.7	Cn1cnnc1C1(F)CCN(c2c(C#N)cccc2-c2ccc(F)nc2)CC1 [compound 56]
7.92	7.29	–	–	–	–	–	–	–	6.15	7.40	25	1.8	Cn1cnnc1C1CCN(c2c(C#N)cccc2-c2cnsc2)CC1 [compound 2]
8.70	8.52	–	–	–	–	–	–	–	7.17	7.80	15	1.1	Cn1cnnc1C1(F)CCN(c2c(C#N)cccc2-c2ccnnc2)CC1 [compound 52]
8.70	7.92	–	–	–	–	–	–	–	7.06	7.89	16	4.1	Cc1cc(F)ncc1-c1cccc(C#N)c1N1CCC(c2nncn2C)CC1 [compound 4]
8.70	9.00	–	–	–	–	–	–	–	7.64	7.66	8	8.9	Cn1cnnc1C1(F)CCN(c2c(C#N)cccc2-c2cnc3nn(C(C)(C)C(F)(F)F)cc3c2)CC1 [compound 61]
7.85	7.08	–	–	–	–	–	–	–	6.25	6.47	7.4	7.4	Cn1cnnc1C1CCN(c2c(C#N)cccc2-c2cnc3c(c2)OCO3)CC1 [compound 25]
8.52	7.60	–	–	–	–	–	–	–	6.92	7.09	3.1	16.5	Cn1cnnc1C1CCN(c2c(C#N)cccc2-c2cncc(-c3ncco3)c2)CC1 [compound 29]
9.00	8.22	–	–	–	–	–	–	–	6.80	7.16	0.3	28.1	Cn1cnnc1C1CCN(c2c(C#N)cccc2-c2ccnnc2)CC1 [compound 32]
7.68	6.89	–	–	–	–	–	–	–	6.43	6.36	8.6	7.7	Cc1cncc(-c2cccc(C#N)c2N2CCC(c3nncn3C)CC2)c1 [compound 11]
9.00	8.52	–	–	–	–	–	–	–	7.06	6.94	0.2	50.6	Cn1cc2cc(-c3cccc(C#N)c3N3CCC(c4nncn4C)CC3)cnc2n1 [compound 22]
8.52	8.22	–	–	–	–	–	–	–	7.04	7.20	33	1.8	Cn1cnnc1C1(F)CCN(c2c(C#N)cccc2-c2cnc3nc(-c4cccc(Cl)c4)ccn23)CC1 [compound 84]
9.00	8.40	–	–	–	–	–	–	–	6.67	6.96	0.1	100	Cn1cnnc1C1CCN(c2c(C#N)cccc2-c2cnc3nnn(C)c3c2)CC1 [compound 40]
8.52	7.92	–	–	–	–	–	–	–	7.03	7.59	23	1.6	Cc1cc(-c2cccc(C#N)c2N2CCC(c3nncn3C)CC2)cnc1F [compound 5]
7.52	7.06	–	–	–	–	–	–	–	6.43	5.73	0.7	52.3	Cn1cnnc1C1CCN(c2c(C#N)cccc2-c2cncc3cn(Cc4ccccc4)nc23)CC1 [compound 77]
8.70	8.52	–	–	–	–	–	–	–	7.20	7.77	41	1.6	Cc1cc(-c2cccc(C#N)c2N2CCC(F)(c3nncn3C)CC2)cnc1F [compound 82]
9.00	8.30	–	–	–	–	–	–	–	7.57	7.57	39	0.7	Cn1cnnc1C1CCN(c2c(C#N)cccc2-c2cnn3nc(-c4cccc(Cl)c4)ccc23)CC1 [compound 81]
8.70	7.89	–	–	–	–	–	–	–	7.01	7.15	6.8	2.5	Cc1c(-c2cccc(C#N)c2N2CCC(c3nncn3C)CC2)cncc1-n1cccn1 [compound 46]
8.30	8.70	–	–	–	–	–	–	–	7.10	7.13	14	2.4	Cn1cnnc1C1(F)CCN(c2c(C#N)cccc2-c2cnn3ncccc23)CC1 [compound 70]
9.00	8.70	–	–	–	–	–	–	–	7.72	8.00	34	2.4	Cn1cnnc1C1CCN(c2c(C#N)cccc2-c2cnc(F)c(OCC3CC3)c2)CC1 [compound 36]
9.00	8.05	–	–	–	–	–	–	–	7.28	7.74	39	2	CC(C)Oc1cc(-c2cccc(C#N)c2N2CCC(c3nncn3C)CC2)cnc1F [compound 19]
8.70	8.05	–	–	–	–	–	–	–	7.20	7.25	18	3.6	COc1cc(-c2cccc(C#N)c2N2CCC(c3nncn3C)CC2)cnc1F [compound 49]
8.15	7.89	–	–	–	–	–	–	–	6.44	6.56	0.6	47.5	Cn1cnnc1C1(F)CCN(c2c(C#N)cccc2-c2cnc3ncccc3c2)CC1 [compound 68]
